Reference: US7960397B2, “6,9-disubstituted purine derivatives and their use as cosmetics and cosmetic compositions” (Institute of Experimental Botany, Academy of Sciences of …, priority 2007, dated 2011)
Where two headings read alike, the source gives them in different places.

Assays:
[1] = tested on: human diploid fibroblasts (HCA cells, HCA20, HCA40, HCA60); experiment: Senescent cells (β-galactosidase staining) in culture of human fibroblasts; assay type: cell-based; conditions: for SENESCENT CELLS (%) HCA20: human fibroblasts passage 20 (HCA20); for SENESCENT CELLS (%) HCA40: human fibroblasts passage 40 (HCA40); for SENESCENT CELLS (%) HCA60: human fibroblasts passage 60 (HCA60)
Summary of the method: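 Fibroblasts taken at passages 20, 40 and 60 were washed and fixed for 5 min at room temperature in 2% formaldehyde/0.2% glutaraldehyde in PBS. After PBS washes, cells were incubated at 37 °C for β-galactosidase staining.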

β-adrenergic receptors = experiment: Isoproterenol-induced cAMP synthesis in rat C6 glioma; assay type: cell-based; conditions: cellular cAMP, simultaneous addition with isoproterenol, 30 min
Method: Anti-inflammatory activity. The compounds of formula 1 having anti-inflammatory activities can be used as cosmetics for treating inflammation skin disorders as atopic dermatitis, lichen planus, hyperpigmentation and Herpes simplex lesions. From this reason, rat C6 glioma (ATCC No. CCL107) was cultivated as a monolayer in a serum-free chemically defined medium containing Ham's F10-minimal essential medium (1:1 v/v), 2 mM L-glutamine, 1% (v/v) minimal essential medium vitamins (100×), 1% (v/v) minimal essential medium nonessential amino acids (100×), 100U/ml penicillin, […] streptomycin and 30 nM sodium selenite. Incubation was performed at 37° C. in a humidified atmosphere. The assays were performed in the logarithmic growth phase at a density of 2.5×10^5 cells/cm^2. Intracellular cAMP synthesis was induced by addition of […] (−)isoproterenol. After 30 min incubation at 37° C. the medium was removed and the cellular amount of cAMP was determined using the cAMP-enzyme immunoassay Amersham kit. The I50 value was determined from a dose-response curve in duplicate. The effect of the novel 6,9-disubstituted purines was measured after simultaneous addition with isoproterenol.
As P2Y1-like and A2 purinergic receptors, negatively and positively coupled to adenylate cyclase, respectively, are present in rat C6 glioma, it remains to be determined whether the modulation of the synthesis of cAMP is due to the inhibition of the activation of β-adrenergic receptors by isoproterenol, or due to the activation of purinergic receptors.

excised wheat leaf tips = experiment: Antisenescence test, retention of chlorophyll in excised wheat leaf tips; design: species or system Triticum aestivum cv. Hereward; conditions: for activity (%) [10^−4 mol · l^−1 BAP = 100%]: retention of chlorophyll in excised wheat leaf tips at the concentration with highest activity, 10 replicate determinations; for concentration with highest activity: retention of chlorophyll in excised wheat leaf tips, tested range 10^−8 M to 10^−4 M, 96 h in the dark at 25° C.
Summary of the method: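 Winter wheat seedlings (Triticum aestivum cv. Hereward) were raised on vermiculite with Knop's solution at 25° C. for 7 days. Tips of the first leaf, 35 mm long (five tips, 100 mg combined), stood in […] of test solution in microtiter wells. After 96 h in the dark at 25° C., chlorophyll was extracted in 80% ethanol at 80° C. and read at 665 nm. Activity is relative to 10^−4 M BAP (100%).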

[2] = tested on: Amaranthus caudatus cotyledon/hypocotyl explants; experiment: Amaranthus bioassay (betacyanin content); design: species or system Amaranthus caudatus var. atropurpurea; conditions: for concentration with highest activity: betacyanin content after 48 h incubation, tested 10^−8 M to 10^−4 M; for Activity (%) [10^−5 mol · l^−1 BAP = 100%]: betacyanin content at the concentration with highest activity, 10^−5 M BAP = 100%
Summary of the method: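 Amaranthus caudatus explants (cotyledons plus hypocotyl) from 72 h dark-grown seedlings were incubated in darkness on medium with 10 mmol Na2HPO4–KH2PO4 pH 6.8, 5 mmol tyrosine and test compound; stock was 10^−3 M in DMSO/water. Betacyanin was measured as A537−A620 and activity expressed relative to 10^−5 M BAP (100%).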

[3] = tested on: cytokinin-dependent tobacco callus Nicotiana tabacum L. cv. Wisconsin 38; experiment: Cytokinin activity in tobacco callus bioassay; assay type: cell-based; conditions: for concentration with highest activity: growth of tobacco callus, four weeks of cultivation, tested 10^−8 M to 10^−4 M; for Activity (%) [10^−5 mol · l^−1 BAP = 100%]: increase of fresh callus weight at the concentration with highest activity, 10^−5 M BAP = 100%
[4] = tested on: breast carcinoma cell line MCF-7; experiment: In vitro cytotoxicity, Calcein AM assay; conditions: read-out: GI50 MCF7
Method: (§1) Because only metabolically active cells cleave Calcein AM, these assays detect viable cells exclusively. The quantity of reduced Calcein AM corresponds to the number of vital cells in the culture.
(§2) The cells were maintained in Nunc/Corning 80 cm^2 plastic tissue culture flasks and cultured in cell culture medium (DMEM with 5 g/l glucose, 2 mM glutamine, 100 U/ml penicillin, 100 mg/ml streptomycin, 10% fetal calf serum and sodium bicarbonate).
(§3) The cell suspensions that were prepared and diluted according to the particular cell type and the expected target cell density (2,500-30,000 cells per well based on cell growth characteristics) were added by pipette (80 ml) into 96-well microtiter plates. Inoculates were allowed a pre-incubation period of 24 hours at 37° C. and 5% CO2 for stabilization. Four-fold dilutions of the intended test concentration were added at time zero in 20 ml aliquots to the microtiter plate wells. Usually, the compound tested was evaluated at six 4-fold dilutions. […] All drug concentrations were examined in duplicate. Incubations of cells with the tested compounds lasted for 72 hours at 37° C., in a 5% CO2 atmosphere and 100% humidity. At the end of the incubation period, the cells were assayed by using Calcein AM. Ten microliters of the stock solution were pipetted into each well and incubated for 1 hour. Fluorescence (FD) was measured with the Labsystem FIA Reader Fluoroscan Ascent (UK).

[5] = tested on: human myeloid leukemia K-562; experiment: In vitro cytotoxicity, Calcein AM assay; conditions: read-out: GI50 K-562
Method: as §1, §2, §3

human osteosarcoma HOS = experiment: In vitro cytotoxicity, Calcein AM assay; conditions: read-out: GI50 HOS
Method: as §1, §2, §3

[6] = tested on: promyelocytic HL-60 leukemia; experiment: In vitro cytotoxicity, Calcein AM assay; conditions: read-out: GI50 HL60
Method: as §1, §2, §3

[7] = tested on: Human T-lymphoblastic leukemia cell line CEM; experiment: In vitro cytotoxicity, Calcein AM assay; conditions: read-out: GI50 CEM
Method: as §1, §2, §3

mouse fibroblasts NIH3T3 = experiment: In vitro cytotoxicity, Calcein AM assay; conditions: read-out: GI50 NIH-3T3
Method: as §1, §2, §3

SMILES	SENESCENT CELLS (%) HCA20 [1]	SENESCENT CELLS (%) HCA40 [1]	SENESCENT CELLS (%) HCA60 [1]	Effect (modulation of the activity of β-adrenergic receptors) (β-adrenergic receptors)	activity (%) [10^−4 mol · l^−1 BAP = 100%] (excised wheat leaf tips)	concentration with highest activity (excised wheat leaf tips)	concentration with highest activity [2]	Activity (%) [10^−5 mol · l^−1 BAP = 100%] [2]	concentration with highest activity [3]	Activity (%) [10^−5 mol · l^−1 BAP = 100%] [3]	GI50 ([4]; MCF7, 72 hours, Calcein AM)	GI50 ([5]; K-562, 72 hours, Calcein AM)	GI50 (human osteosarcoma HOS; HOS, 72 hours, Calcein AM)	GI50 ([6]; HL60, 72 hours, Calcein AM)	GI50 ([7]; CEM, 72 hours, Calcein AM)	GI50 (mouse fibroblasts NIH3T3; NIH-3T3, 72 hours, Calcein AM)	also measured
Oc1ccc(CNc2ncnc3c2ncn3C2CCCCO2)cc1O (centres unmarked)	3%	4%	15%	1.7-fold fold activation	71.3%	10^−4 mol · l^−1	10^−4 mol · l^−1	52%	10^−5 mol · l^−1	61%	–	–	–	–	–	–	–
COc1cc(O)cc(OC)c1CNc1ncnc2c1ncn2C1CCCCO1 (centres unmarked)	4%	5%	21%	1.3-fol fold activation	22%	10^−4 mol · l^−1	10^−4 mol · l^−1	12%	10^−5 mol · l^−1	43%	–	–	–	–	–	–	–
COc1cc(CNc2ncnc3c2ncn3C2CCCCO2)ccc1O (centres unmarked)	4%	4%	19%	1.6-fold fold activation	55%	10^−4 mol · l^−1	10^−4 mol · l^−1	57%	10^−6 mol · l^−1	62%	–	–	–	–	–	–	–
Oc1coc(CNc2ncnc3c2ncn3C2CCCCO2)c1 (centres unmarked)	4%	4%	16%	–	101%	10^−4 mol · l^−1	10^−4 mol · l^−1	115%	10^−6 mol · l^−1	91%	> 167 µM	> 167 µM	> 167 µM	–	–	–	–
Oc1ccccc1CNc1ncnc2[nH]cnc12 [2-hydroxybenzylamino / H, reference compound]	–	–	–	–	22.4%	10^−4 mol · l^−1	10^−4 mol · l^−1	32.6%	10^−5 mol · l^−1	72.3%	> 167 µM	> 167 µM	> 167 µM	78 µM	69.2 µM	> 167 µM	–
Oc1cccc(CNc2ncnc3[nH]cnc23)c1 [3-hydroxybenzylamino / H, reference compound]	–	–	–	–	105.9%	10^−4 mol · l^−1	10^−5 mol · l^−1	99%	10^−5 mol · l^−1	116%	> 167 µM	128 µM	> 167 µM	79.2 µM	90.1 µM	> 167 µM	–
Cc1cc(CNc2ncnc3c2ncn3C2CCCCO2)ccc1O (centres unmarked) [4-hydroxy-5-methylbenzylamino / tetrahydropyran-2-yl]	3%	4%	20%	–	3%	10^−4 mol · l^−1	10^−4 mol · l^−1	5%	10^−5 mol · l^−1	6%	> 167 µM	–	> 167 µM	> 1670 µM	> 167 µM	> 1670 µM	–
c1ccc(CNc2ncnc3nc[nH]c23)cc1 [benzylamino / H, 6-benzylaminopurine, reference compound]	–	–	–	–	100%	10^−4 mol · l^−1	10^−5 mol · l^−1	100%	10^−6 mol · l^−1	100%	–	–	–	–	–	–	GI50 ([6]; Homo sapiens, HL-60, 72 h): > 167 µM; GI50 ([7]; Homo sapiens, 72 h): > 167 µM; GI50 ([4]; Homo sapiens, MCF7, 72 h): 166 µM; GI50 (mouse fibroblasts NIH3T3; Mus musculus, NIH3T3, 72 h): > 167 µM; GI50 ([5]; Homo sapiens, K562, 72 h): 139 µM; GI50 (human osteosarcoma HOS; Homo sapiens, 72 h): > 167 µM
c1coc(CNc2ncnc3[nH]cnc23)c1 [furfurylamino / H, reference compound]	–	–	–	–	–	–	–	–	–	–	> 167 µM	164 µM	> 167 µM	149 µM	155 µM	> 167 µM	–
CC(C)=CCNc1ncnc2nc[nH]c12 [isopentenylamino / H]	–	–	–	–	–	–	–	–	–	–	> 167 µM	147 µM	> 167 µM	> 167 µM	92.2 µM	> 167 µM	–
